Test results as given in patent US11420958B2, “Aryl and heteroaryl substituted indole compounds” (BRISTOL-MYERS SQUIBB COMPANY, priority 2017, dated 2022).

Tests used:
Type in all cases: cell-based
[1] = target: human TLR7 (Homo sapiens (Human), UniProt Q9NYK1); assay: TLR7 inhibition reporter assay (HEK-Blue, SEAP); details: HEK-Blue cells overexpressing human TLR7, gardiquimod 7.5 μM stimulation
In short: (§1)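 HEK-Blue cells expressing human TLR7, TLR8 or TLR9 with NF-κB/AP-1-driven SEAP reporter; compounds 0.05 nM–50 μM, 30 min pre-treatment at room temperature. Stimulated with gardiquimod 7.5 μM (TLR7), R848 15.9 μM (TLR8) or ODN2006 5 nM (TLR9), 22 h at 37 °C; % inhibition of SEAP signal relative to agonist+DMSO and known-inhibitor wells.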

[2] = target: human TLR9 (Homo sapiens (Human), UniProt Q9NR96); assay: TLR9 inhibition reporter assay (HEK-Blue, SEAP); details: HEK-Blue cells overexpressing human TLR9, ODN2006 5 nM stimulation
Sequence of human TLR9 (Q9NR96 26-1032): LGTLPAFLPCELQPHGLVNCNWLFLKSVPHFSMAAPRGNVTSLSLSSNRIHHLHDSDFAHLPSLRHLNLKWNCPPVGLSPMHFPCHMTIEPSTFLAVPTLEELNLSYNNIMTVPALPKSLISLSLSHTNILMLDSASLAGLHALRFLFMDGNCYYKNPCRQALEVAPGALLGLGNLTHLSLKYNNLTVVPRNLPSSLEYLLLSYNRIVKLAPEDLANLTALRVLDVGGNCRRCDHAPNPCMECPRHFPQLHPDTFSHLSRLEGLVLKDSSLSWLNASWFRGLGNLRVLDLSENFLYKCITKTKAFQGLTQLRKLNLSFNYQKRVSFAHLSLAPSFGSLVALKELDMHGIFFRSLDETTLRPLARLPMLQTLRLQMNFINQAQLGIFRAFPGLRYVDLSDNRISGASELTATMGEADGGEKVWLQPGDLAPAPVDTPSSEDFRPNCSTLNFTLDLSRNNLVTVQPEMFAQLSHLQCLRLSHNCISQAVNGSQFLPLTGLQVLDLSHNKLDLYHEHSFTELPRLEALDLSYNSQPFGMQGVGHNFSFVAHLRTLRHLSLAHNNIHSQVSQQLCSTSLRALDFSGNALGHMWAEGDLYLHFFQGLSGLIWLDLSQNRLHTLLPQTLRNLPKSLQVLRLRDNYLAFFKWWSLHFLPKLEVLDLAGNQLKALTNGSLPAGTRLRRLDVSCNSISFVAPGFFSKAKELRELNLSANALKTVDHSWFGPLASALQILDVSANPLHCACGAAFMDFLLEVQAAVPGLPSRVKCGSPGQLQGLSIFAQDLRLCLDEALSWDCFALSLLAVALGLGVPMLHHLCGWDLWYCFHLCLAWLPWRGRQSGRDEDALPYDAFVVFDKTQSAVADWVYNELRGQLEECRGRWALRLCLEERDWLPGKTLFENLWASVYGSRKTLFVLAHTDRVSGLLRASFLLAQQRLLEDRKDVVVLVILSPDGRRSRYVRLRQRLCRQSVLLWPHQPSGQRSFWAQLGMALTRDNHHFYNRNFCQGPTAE
In short: as §1

[3] = target: human TLR8 (Homo sapiens (Human), UniProt Q9NR97); assay: TLR8 inhibition reporter assay (HEK-Blue, SEAP); details: HEK-Blue cells overexpressing human TLR8, R848 15.9 μM stimulation
Sequence of human TLR8 (Q9NR97 27-1041): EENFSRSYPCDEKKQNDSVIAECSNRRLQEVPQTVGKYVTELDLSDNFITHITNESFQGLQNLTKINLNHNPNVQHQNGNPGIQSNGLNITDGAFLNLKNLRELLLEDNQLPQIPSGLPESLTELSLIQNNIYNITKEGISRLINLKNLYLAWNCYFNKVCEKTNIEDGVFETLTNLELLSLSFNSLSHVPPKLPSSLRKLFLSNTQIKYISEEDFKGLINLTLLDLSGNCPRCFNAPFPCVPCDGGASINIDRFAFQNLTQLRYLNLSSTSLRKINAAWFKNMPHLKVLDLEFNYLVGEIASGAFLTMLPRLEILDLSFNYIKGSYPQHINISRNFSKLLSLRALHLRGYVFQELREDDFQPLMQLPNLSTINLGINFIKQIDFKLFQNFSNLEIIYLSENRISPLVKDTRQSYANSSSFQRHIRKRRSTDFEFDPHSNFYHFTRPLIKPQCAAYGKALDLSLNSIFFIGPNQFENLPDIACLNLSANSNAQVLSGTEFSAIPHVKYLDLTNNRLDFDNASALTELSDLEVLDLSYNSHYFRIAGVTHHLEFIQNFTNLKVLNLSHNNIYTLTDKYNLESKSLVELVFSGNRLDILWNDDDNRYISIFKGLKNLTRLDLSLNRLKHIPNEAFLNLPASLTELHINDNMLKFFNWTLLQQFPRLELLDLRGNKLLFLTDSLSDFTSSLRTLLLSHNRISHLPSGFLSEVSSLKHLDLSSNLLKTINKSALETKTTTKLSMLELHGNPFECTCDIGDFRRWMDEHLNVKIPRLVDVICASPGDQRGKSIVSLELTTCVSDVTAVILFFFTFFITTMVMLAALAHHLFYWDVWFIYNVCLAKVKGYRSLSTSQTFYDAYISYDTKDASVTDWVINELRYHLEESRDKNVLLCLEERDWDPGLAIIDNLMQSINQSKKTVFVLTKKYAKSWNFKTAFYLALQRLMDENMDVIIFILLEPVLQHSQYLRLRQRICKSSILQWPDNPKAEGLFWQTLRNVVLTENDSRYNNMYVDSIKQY
In short: as §1

Sequence of human TLR7 (Q9NYK1 27-1049): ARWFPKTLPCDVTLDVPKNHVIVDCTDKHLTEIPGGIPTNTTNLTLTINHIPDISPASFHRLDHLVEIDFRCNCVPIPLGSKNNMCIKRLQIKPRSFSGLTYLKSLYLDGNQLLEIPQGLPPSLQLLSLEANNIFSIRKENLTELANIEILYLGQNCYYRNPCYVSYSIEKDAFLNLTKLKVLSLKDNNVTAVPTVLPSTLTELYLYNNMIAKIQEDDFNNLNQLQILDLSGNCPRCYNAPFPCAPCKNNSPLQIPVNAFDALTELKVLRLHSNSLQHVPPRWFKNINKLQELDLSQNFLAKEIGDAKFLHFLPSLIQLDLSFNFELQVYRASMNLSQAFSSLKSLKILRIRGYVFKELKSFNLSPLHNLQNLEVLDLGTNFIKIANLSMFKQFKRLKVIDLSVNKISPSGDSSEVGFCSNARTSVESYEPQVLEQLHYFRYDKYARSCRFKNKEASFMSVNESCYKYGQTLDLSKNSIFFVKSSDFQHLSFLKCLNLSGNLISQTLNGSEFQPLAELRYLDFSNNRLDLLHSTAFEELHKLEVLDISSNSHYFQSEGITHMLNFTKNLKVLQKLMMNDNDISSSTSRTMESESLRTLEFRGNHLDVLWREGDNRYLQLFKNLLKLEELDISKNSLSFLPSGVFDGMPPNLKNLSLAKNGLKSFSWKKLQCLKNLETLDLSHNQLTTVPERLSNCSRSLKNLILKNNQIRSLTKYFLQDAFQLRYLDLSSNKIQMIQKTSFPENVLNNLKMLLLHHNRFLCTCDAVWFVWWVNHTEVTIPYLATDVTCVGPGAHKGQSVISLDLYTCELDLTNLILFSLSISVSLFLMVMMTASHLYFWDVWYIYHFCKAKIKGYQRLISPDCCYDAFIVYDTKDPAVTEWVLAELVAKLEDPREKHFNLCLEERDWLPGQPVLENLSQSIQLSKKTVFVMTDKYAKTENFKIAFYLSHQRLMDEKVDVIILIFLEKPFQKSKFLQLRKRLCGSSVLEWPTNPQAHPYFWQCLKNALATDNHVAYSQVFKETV

SMILES | IC50 [1] | IC50 [2] | IC50 [3]
Cc1cc(-c2[nH]c3ccc(-c4cc5c(s4)CN(C(=O)CS(C)(=O)=O)CC5)cc3c2C(C)C)cc(C)n1 [Example 353, 1-(2-(2-(2,6-dimethylpyridin-4-yl)-3-isopropyl-1H-indol-5-yl)-4,7-dihydrothieno[2,3-c]pyridin-6(5H)-yl)-2-(methylsulfonyl)ethan-1-one] | 53 nM | > 50000 nM | 39 nM
Cc1cc(-c2[nH]c3ccc(-c4cn5c(n4)CNCC5)cc3c2C(C)C)cc(C)n1 [Example 354, 2-(2-(2,6-dimethylpyridin-4-yl)-3-isopropyl-1H-indol-5-yl)-5,6,7,8-tetrahydroimidazo[1,2-a]pyrazine] | 48 nM | 2100 nM | 2.8 nM
Cc1cc(-c2[nH]c3ccc(-c4ccn5ncnc5c4C)cc3c2C(C)C)cc(C)n1 [Example 355, 7-(2-(2,6-dimethylpyridin-4-yl)-3-isopropyl-1H-indol-5-yl)-8-methyl-[1,2,4]triazolo[1,5-a]pyridine] | 57 nM | 25200 nM | 176 nM
CNCC(=O)Nc1cnc(-c2ccc3[nH]c(-c4cc(C)nc(C)c4)c(C(C)C)c3c2)cn1 [Example 356, N-(5-(2-(2,6-dimethylpyridin-4-yl)-3-isopropyl-1H-indol-5-yl)pyrazin-2-yl)-2-(methylamino)acetamide] | 10 nM | 952 nM | 4.6 nM
Cc1cc(-c2[nH]c3ccc(-c4nnc(C5CCCN(C(C)C)C5)[nH]4)cc3c2C(C)C)cc(C)n1 (stereo not drawn) [Example 357, 2-(2,6-dimethylpyridin-4-yl)-3-isopropyl-5-(5-(1-isopropylpiperidin-3-yl)-4H-1,2,4-triazol-3-yl)-1H-indole] | 4.4 nM | 205 nM | 1.4 nM
Cc1cc(-c2[nH]c3ccc(-c4nnc(C5CCCN(C(C)C)C5)[nH]4)cc3c2C(C)C)cc(C)n1 (stereo not drawn) [Example 358, 2-(2,6-dimethylpyridin-4-yl)-3-isopropyl-5-(5-(1-isopropylpiperidin-3-yl)-4H-1,2,4-triazol-3-yl)-1H-indole] | 4.9 nM | 157 nM | 1.6 nM
Cc1cc(-c2[nH]c3ccc(-c4cnc(N)cn4)cc3c2C(C)C)ccn1 [Example 359, 5-(3-isopropyl-2-(2-methylpyridin-4-yl)-1H-indol-5-yl)pyrazin-2-amine] | 17 nM | 14400 nM | 7.5 nM
Cc1cc(-c2[nH]c3ccc(-c4ccc(N)nn4)cc3c2C(C)C)ccn1 [Example 360, 6-(3-isopropyl-2-(2-methylpyridin-4-yl)-1H-indol-5-yl)pyridazin-3-amine] | 58 nM | 27000 nM | 16 nM
Cc1cc(-c2[nH]c3ccc(-c4cc5c(s4)CN(C)CC5)cc3c2C(C)C)cc(C)n1 [Example 361, 2-(2-(2,6-dimethylpyridin-4-yl)-3-isopropyl-1H-indol-5-yl)-6-methyl-4,5,6,7-tetrahydrothieno[2,3-c]pyridine] | 6 nM | 490 nM | 1.5 nM
CC(=O)N1CCc2nc(-c3ccc4[nH]c(-c5cc(C)nc(C)c5)c(C(C)C)c4c3)sc2C1 [Example 362, 1-(2-(2-(2,6-dimethylpyridin-4-yl)-3-isopropyl-1H-indol-5-yl)-6,7-dihydrothiazolo[5,4-c]pyridin-5(4H)-yl)ethan-1-one] | 6.4 nM | > 50000 nM | 9 nM
Cc1cc(-c2[nH]c3ccc(-c4nc5c(s4)CN(C(=O)CN(C)C)CC5)cc3c2C(C)C)cc(C)n1 [Example 363, 2-(dimethylamino)-1-(2-(2-(2,6-dimethylpyridin-4-yl)-3-isopropyl-1H-indol-5-yl)-6,7-dihydrothiazolo[5,4-c]pyridin-5(4H)-yl)ethan-1-one] | 0.8 nM | 151 nM | 2.3 nM
Cc1cc(-c2[nH]c3ccc(-c4nc5c(s4)CN(C(=O)C4CC(=O)N(C)C4)CC5)cc3c2C(C)C)cc(C)n1 (stereo not drawn) [Example 364, 4-(2-(2-(2,6-dimethylpyridin-4-yl)-3-isopropyl-1H-indol-5-yl)-4,5,6,7-tetrahydrothiazolo[5,4-c]pyridine-5-carbonyl)-1-methylpyrrolidin-2-one] | 20 nM | > 50000 nM | 11 nM
Cc1cc(-c2[nH]c3ccc(-c4cnc(NC(=O)CN(C)C)cn4)cc3c2C(C)C)ccn1 [Example 365, 2-(dimethylamino)-N-(5-(3-isopropyl-2-(2-methylpyridin-4-yl)-1H-indol-5-yl)pyrazin-2-yl)acetamide] | 7.3 nM | 1290 nM | 1.6 nM
Cc1cc(-c2[nH]c3ccc(-c4cc(F)c5nc(C)cn5c4)cc3c2C(C)C)cc(C)n1 [Example 366, 6-(2-(2,6-dimethylpyridin-4-yl)-3-isopropyl-1H-indol-5-yl)-8-fluoro-2-methylimidazo[1,2-a]pyridine] | 63 nM | 11500 nM | 84 nM
Cc1cc(-c2[nH]c3ccc(-c4nnc(C5CCN(C)CC5)o4)cc3c2C(C)C)cn2ncnc12 [Example 367, 2-(3-isopropyl-2-(8-methyl-[1,2,4]triazolo[1,5-a]pyridin-6-yl)-1H-indol-5-yl)-5-(1-methylpiperidin-4-yl)-1,3,4-oxadiazole] | 0.37 nM | 673 nM | 0.6 nM
COc1ccc(-c2[nH]c3ccc(-c4cccc(N5CCN(C)CC5)c4)cc3c2C(C)C)cc1OC [Example 369, 2-(3,4-dimethoxyphenyl)-3-isopropyl-5-(3-(4-methylpiperazin-1-yl)phenyl)-1H-indole] | 2110 nM | 2300 nM | 64 nM
COc1ccc(-c2[nH]c3ccc(-c4cccc(N5CCN(C(C)C)CC5)c4)cc3c2C(C)C)cc1OC [Example 370, 2-(3,4-dimethoxyphenyl)-3-isopropyl-5-(3-(4-isopropylpiperazin-1-yl)phenyl)-1H-indole] | 3920 nM | 4840 nM | 93 nM
COc1ccc(-c2[nH]c3ccc(-c4cccc(N5CCN(CC(C)C)CC5)c4)cc3c2C(C)C)cc1OC [Example 371, 2-(3,4-dimethoxyphenyl)-5-(3-(4-isobutylpiperazin-1-yl)phenyl)-3-isopropyl-1H-indole] | 894 nM | 10200 nM | 176 nM
COc1ccc(-c2[nH]c3ccc(-c4ccc(-c5cccc(CN6CCN(C)CC6)c5)cc4)cc3c2C(C)C)cc1OC [Example 373, 2-(3,4-dimethoxyphenyl)-3-isopropyl-5-(3′-((4-methylpiperazin-1-yl)methyl)-[1,1′-biphenyl]-4-yl)-1H-indole] | 1860 nM | 4360 nM | 20100 nM
COc1ccc(-c2[nH]c3ccc(-c4ccc(-c5cccc(CN(C)C)c5)cc4)cc3c2C(C)C)cc1OC [Example 374, 1-(4′-(2-(3,4-dimethoxyphenyl)-3-isopropyl-1H-indol-5-yl)-[1,1′-biphenyl]-3-yl)-N,N-dimethylmethanamine] | 428 nM | > 50000 nM | 317 nM
COc1ccc(-c2[nH]c3ccc(-c4ccc(C5=CCN(C6CCN(CC(C)C)CC6)CC5)cc4)cc3c2C)cc1OC [Example 375, 2-(3,4-dimethoxyphenyl)-5-(4-(1-(1-isobutylpiperidin-4-yl)-1,2,3,6-tetrahydropyridin-4-yl)phenyl)-3-methyl-1H-indole] | > 50000 nM | 291 nM | 12400 nM
COc1ccc(-c2[nH]c3ccc(-c4ccc(C5=CCN(C)CC5)cc4)cc3c2C)cc1OC [Example 376, 2-(3,4-dimethoxyphenyl)-3-methyl-5-(4-(1-methyl-1,2,3,6-tetrahydropyridin-4-yl)phenyl)-1H-indole] | 2880 nM | 2410 nM | 487 nM
COc1ccc(-c2[nH]c3ccc(-c4ccc(C5=CC(C)(C)NC(C)(C)C5)cc4)cc3c2C(C)C)cc1OC [Example 377, 2-(3,4-dimethoxyphenyl)-3-isopropyl-5-(4-(2,2,6,6-tetramethyl-1,2,3,6-tetrahydropyridin-4-yl)phenyl)-1H-indole] | 900 nM | 4770 nM | 340 nM
COc1ccc(-c2[nH]c3ccc(-c4ccc(N5CCCN(CCO)CC5)cc4)cc3c2C(C)C)cc1OC [Example 379, 2-(4-(4-(2-(3,4-dimethoxyphenyl)-3-isopropyl-1H-indol-5-yl)phenyl)-1,4-diazepan-1-yl)ethan-1-ol] | 692 nM | 2950 nM | 71 nM
COc1ccc(-c2[nH]c3ccc(-c4ccc(N5CCCN(C)CC5)cc4)cc3c2C(C)C)cc1OC [Example 380, 2-(3,4-dimethoxyphenyl)-3-isopropyl-5-(4-(4-methyl-1,4-diazepan-1-yl)phenyl)-1H-indole] | 881 nM | 2920 nM | 35 nM
CCc1c(-c2ccc(OC)c(OC)c2)[nH]c2ccc(-c3ccc(N4CCN(C)CC4)cc3)cc12 [Example 381, 2-(3,4-dimethoxyphenyl)-3-ethyl-5-(4-(4-methylpiperazin-1-yl)phenyl)-1H-indole] | 517 nM | 46600 nM | 22600 nM
COc1ccc(-c2[nH]c3ccc(-c4ccc(N5CCN(C(C)C)CC5)cc4)cc3c2C(C)C)cc1OC [Example 382, 2-(3,4-dimethoxyphenyl)-3-isopropyl-5-(4-(4-isopropylpiperazin-1-yl)phenyl)-1H-indole] | 157 nM | 917 nM | 32 nM
COc1ccc(-c2[nH]c3ccc(-c4ccc(N5CCN[C@H](C)C5)cc4)cc3c2C(C)C)cc1OC [Example 383, (R)-2-(3,4-dimethoxyphenyl)-3-isopropyl-5-(4-(3-methylpiperazin-1-yl)phenyl)-1H-indole] | 136 nM | 4630 nM | 45 nM
